# Assay results taken from ChEMBL document CHEMBL4800728, “Data for DCP probe JNJ-54119936” (2021).
# Experiments:
# [1] = biological target: Alpha-2B adrenergic receptor (Homo sapiens, UniProt P18089); test: GPCRScan assay: inhibition of Alpha2B; design: radioligand conc. used [nm] 1.5 – 2.0, parental cells HEKT
# [2] = biological target: RAC-alpha serine/threonine-protein kinase (Homo sapiens) (UniProt P31749); test: PKBalpha Invitrogen kinase panel; details: Compound concentration 10.0 uM
# [3] = biological target: Calcium/calmodulin-dependent protein kinase type II subunit beta (Homo sapiens) (UniProt Q13554); test: CaMKIIbeta Invitrogen kinase panel; details: Compound concentration 10.0 uM
# Chain of Calcium/calmodulin-dependent protein kinase type II subunit beta (Homo sapiens) (Q13554 whole entry): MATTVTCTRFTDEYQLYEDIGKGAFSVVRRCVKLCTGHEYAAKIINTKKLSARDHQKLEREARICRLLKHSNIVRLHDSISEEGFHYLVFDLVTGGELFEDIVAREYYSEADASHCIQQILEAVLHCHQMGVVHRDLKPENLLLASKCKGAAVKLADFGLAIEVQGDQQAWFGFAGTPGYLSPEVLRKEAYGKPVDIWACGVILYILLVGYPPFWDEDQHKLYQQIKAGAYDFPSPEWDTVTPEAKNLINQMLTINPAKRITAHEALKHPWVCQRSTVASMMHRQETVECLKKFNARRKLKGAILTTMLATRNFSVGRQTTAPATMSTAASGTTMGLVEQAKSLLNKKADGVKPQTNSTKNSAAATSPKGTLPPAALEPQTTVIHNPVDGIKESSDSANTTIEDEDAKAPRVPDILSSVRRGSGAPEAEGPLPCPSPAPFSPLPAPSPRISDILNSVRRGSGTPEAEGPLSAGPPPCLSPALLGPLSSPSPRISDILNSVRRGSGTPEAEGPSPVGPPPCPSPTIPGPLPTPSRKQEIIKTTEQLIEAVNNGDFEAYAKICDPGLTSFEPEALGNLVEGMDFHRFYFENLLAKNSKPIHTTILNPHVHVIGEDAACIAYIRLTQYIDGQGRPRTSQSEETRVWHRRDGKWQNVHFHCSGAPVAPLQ
# [4] = biological target: Serine/threonine-protein kinase Chk1 (Homo sapiens) (UniProt O14757); test: CHK1 Invitrogen kinase panel; details: Compound concentration 10.0 uM
# [5] = biological target: Dual specificity protein kinase CLK2 (Homo sapiens) (UniProt P49760); test: CLK2 Invitrogen kinase panel; details: Compound concentration 10.0 uM
# [6] = biological target: Receptor-type tyrosine-protein kinase FLT3 (Homo sapiens) (UniProt P36888); test: Flt3 Invitrogen kinase panel; details: Compound concentration 10.0 uM
# [7] = biological target: Glycogen synthase kinase-3 alpha (Homo sapiens) (UniProt P49840); test: GSK3alpha Invitrogen kinase panel; details: Compound concentration 10.0 uM
# Chain of Glycogen synthase kinase-3 alpha (Homo sapiens) (P49840 2-483 limits assumed): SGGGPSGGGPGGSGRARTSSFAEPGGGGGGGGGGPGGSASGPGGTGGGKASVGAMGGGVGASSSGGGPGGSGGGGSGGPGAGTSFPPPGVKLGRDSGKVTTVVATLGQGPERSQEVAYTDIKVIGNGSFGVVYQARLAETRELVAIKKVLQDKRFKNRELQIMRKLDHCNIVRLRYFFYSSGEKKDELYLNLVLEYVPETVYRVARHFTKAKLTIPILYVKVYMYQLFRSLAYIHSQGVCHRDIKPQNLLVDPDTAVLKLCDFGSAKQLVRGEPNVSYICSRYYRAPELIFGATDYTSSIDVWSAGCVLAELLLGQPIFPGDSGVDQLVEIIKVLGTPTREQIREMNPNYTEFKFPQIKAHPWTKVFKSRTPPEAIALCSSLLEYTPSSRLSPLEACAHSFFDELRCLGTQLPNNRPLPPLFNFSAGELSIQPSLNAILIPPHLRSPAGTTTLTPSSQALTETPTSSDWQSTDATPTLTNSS
# [8] = biological target: Insulin receptor (Homo sapiens) (UniProt P06213); test: INSR Invitrogen kinase panel; details: Compound concentration 10.0 uM
# [9] = biological target: Tyrosine-protein kinase JAK3 (Homo sapiens) (UniProt P52333); test: JAK3 Invitrogen kinase panel; details: Compound concentration 10.0 uM
# [10] = biological target: Mitogen-activated protein kinase 1 (Homo sapiens) (UniProt P28482); test: ERK2 Invitrogen kinase panel; details: Compound concentration 10.0 uM
# [11] = biological target: Mitogen-activated protein kinase 13 (Homo sapiens) (UniProt O15264); test: p38delta Invitrogen kinase panel; details: Compound concentration 10.0 uM
# [12] = biological target: Serine/threonine-protein kinase pim-2 (Homo sapiens) (UniProt Q9P1W9); test: Pim2 Invitrogen kinase panel; details: Compound concentration 10.0 uM
# [13] = biological target: Tyrosine-protein kinase ZAP-70 (Homo sapiens) (UniProt P43403); test: ZAP_70 Invitrogen kinase panel; details: Compound concentration 10.0 uM
# [14] = biological target: Adenosine receptor A2a (Homo sapiens) (UniProt P29274); test: A2a (h) CEREP screen
# Chain of Adenosine receptor A2a (Homo sapiens) (P29274 whole entry): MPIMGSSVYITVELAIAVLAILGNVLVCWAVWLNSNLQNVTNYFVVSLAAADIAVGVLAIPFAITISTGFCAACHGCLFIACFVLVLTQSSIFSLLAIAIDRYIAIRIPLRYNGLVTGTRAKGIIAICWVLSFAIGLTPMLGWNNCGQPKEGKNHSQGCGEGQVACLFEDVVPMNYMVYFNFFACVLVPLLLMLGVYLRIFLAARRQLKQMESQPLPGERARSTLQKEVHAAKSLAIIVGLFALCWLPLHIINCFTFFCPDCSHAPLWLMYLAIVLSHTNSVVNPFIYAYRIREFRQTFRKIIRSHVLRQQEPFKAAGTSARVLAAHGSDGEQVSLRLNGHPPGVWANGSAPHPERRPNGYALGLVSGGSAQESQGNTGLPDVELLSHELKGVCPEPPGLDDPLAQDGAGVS
# [15] = biological target: Adenosine receptor A3 (Homo sapiens) (UniProt P0DMS8); test: A3 (h) CEREP screen
# Chain of Adenosine receptor A3 (Homo sapiens) (P0DMS8 whole entry): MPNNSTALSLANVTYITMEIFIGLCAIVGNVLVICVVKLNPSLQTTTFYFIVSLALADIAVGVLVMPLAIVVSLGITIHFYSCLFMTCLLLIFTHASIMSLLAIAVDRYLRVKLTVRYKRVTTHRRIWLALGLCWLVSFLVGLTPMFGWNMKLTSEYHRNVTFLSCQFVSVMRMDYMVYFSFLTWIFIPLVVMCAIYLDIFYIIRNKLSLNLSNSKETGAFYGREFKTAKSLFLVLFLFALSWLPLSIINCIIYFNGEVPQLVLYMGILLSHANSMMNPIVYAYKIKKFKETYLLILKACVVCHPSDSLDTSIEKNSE
# [16] = biological target: Melanocortin receptor 4 (Homo sapiens) (UniProt P32245); test: MC4 (h) CEREP screen; details: Compound concentration 10.0 uM
# [17] = biological target: Melatonin receptor type 1A (Homo sapiens) (UniProt P48039); test: MT1 (ML1A) (h) CEREP screen; details: Compound concentration 10.0 uM
# [18] = biological target: Neuromedin-K receptor (Homo sapiens) (UniProt P29371); test: NK3 (h) CEREP screen
# Chain of Neuromedin-K receptor (Homo sapiens) (P29371 whole entry): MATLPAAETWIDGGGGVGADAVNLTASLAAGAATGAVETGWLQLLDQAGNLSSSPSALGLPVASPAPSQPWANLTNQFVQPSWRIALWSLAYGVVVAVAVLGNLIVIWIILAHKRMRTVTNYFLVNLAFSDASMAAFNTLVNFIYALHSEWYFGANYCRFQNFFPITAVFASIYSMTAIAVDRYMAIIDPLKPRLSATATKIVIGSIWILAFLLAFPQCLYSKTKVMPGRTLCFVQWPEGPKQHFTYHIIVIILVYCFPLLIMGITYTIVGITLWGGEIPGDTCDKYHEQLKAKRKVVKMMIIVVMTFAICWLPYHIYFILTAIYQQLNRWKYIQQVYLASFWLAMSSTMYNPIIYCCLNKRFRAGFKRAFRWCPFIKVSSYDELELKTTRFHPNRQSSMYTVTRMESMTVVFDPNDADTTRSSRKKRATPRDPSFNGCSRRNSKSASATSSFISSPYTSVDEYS
# [19] = biological target: Delta-type opioid receptor (Homo sapiens) (UniProt P41143); test: Delta2 (h) CEREP screen; details: Compound concentration 10.0 uM
# Chain of Delta-type opioid receptor (Homo sapiens) (P41143 whole entry): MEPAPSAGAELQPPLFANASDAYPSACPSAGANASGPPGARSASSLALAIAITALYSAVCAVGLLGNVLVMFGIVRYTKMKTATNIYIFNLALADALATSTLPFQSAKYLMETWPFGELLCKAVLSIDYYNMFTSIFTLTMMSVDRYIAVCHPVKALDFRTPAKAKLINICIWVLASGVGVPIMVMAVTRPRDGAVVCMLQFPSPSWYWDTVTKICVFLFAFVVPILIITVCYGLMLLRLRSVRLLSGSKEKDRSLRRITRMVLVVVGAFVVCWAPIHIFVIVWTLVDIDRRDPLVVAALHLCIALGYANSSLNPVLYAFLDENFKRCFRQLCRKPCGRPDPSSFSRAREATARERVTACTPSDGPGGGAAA
# [20] = biological target: Serotonin 3 (5-HT3) receptor (Homo sapiens) (UniProt P46098+A5X5Y0+O95264+Q70Z44+Q8WXA8); test: 5-HT3 (h) CEREP screen; type: protein-complex assay; details: Compound concentration 10.0 uM
# [21] = biological target: Sodium-dependent noradrenaline transporter (Homo sapiens) (UniProt P23975); test: norepinephrine transporter (h) CEREP screen
# Chain of Sodium-dependent noradrenaline transporter (Homo sapiens) (P23975 whole entry): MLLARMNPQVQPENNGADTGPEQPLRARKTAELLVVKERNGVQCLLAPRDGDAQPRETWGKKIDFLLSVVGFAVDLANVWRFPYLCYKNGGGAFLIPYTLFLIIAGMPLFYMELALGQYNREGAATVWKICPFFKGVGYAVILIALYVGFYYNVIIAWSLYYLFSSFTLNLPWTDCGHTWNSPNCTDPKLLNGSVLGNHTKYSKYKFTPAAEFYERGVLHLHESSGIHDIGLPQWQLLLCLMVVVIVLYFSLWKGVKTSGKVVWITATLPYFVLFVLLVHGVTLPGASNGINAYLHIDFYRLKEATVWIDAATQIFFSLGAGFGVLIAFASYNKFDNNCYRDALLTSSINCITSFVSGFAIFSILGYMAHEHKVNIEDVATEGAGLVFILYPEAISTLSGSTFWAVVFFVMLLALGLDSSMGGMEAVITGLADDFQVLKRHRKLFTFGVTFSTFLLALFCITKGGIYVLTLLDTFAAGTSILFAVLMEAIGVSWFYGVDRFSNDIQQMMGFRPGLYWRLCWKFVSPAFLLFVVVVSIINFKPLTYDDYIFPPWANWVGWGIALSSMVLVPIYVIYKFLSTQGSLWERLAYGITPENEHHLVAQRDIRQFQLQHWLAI
# [22] = biological target: Sodium-dependent serotonin transporter (Homo sapiens) (UniProt P31645); test: 5-HT transporter (h) CEREP screen; details: Compound concentration 10.0 uM
# Chain of Sodium-dependent serotonin transporter (Homo sapiens) (P31645 whole entry, looked up): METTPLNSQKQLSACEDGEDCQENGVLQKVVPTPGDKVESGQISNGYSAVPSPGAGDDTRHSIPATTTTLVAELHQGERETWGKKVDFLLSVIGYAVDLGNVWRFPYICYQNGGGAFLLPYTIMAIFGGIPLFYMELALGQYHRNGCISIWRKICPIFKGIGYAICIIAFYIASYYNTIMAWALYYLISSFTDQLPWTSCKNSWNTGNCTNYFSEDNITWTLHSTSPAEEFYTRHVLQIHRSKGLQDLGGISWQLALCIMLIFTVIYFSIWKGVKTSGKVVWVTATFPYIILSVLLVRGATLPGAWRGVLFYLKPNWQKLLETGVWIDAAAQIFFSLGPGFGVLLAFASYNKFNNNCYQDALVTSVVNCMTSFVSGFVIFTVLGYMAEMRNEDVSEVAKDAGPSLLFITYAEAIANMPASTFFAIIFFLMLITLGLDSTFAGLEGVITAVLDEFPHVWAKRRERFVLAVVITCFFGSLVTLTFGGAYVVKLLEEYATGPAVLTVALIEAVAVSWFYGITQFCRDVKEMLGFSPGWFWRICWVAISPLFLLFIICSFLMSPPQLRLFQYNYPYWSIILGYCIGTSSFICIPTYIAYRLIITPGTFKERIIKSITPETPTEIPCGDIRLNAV
# [23] = biological target: T1, Glucocorticoid receptor (Homo sapiens) (UniProt P04150); test: GR Indigo Bioscience nuclear receptor screen
# T1 sequence (whole entry): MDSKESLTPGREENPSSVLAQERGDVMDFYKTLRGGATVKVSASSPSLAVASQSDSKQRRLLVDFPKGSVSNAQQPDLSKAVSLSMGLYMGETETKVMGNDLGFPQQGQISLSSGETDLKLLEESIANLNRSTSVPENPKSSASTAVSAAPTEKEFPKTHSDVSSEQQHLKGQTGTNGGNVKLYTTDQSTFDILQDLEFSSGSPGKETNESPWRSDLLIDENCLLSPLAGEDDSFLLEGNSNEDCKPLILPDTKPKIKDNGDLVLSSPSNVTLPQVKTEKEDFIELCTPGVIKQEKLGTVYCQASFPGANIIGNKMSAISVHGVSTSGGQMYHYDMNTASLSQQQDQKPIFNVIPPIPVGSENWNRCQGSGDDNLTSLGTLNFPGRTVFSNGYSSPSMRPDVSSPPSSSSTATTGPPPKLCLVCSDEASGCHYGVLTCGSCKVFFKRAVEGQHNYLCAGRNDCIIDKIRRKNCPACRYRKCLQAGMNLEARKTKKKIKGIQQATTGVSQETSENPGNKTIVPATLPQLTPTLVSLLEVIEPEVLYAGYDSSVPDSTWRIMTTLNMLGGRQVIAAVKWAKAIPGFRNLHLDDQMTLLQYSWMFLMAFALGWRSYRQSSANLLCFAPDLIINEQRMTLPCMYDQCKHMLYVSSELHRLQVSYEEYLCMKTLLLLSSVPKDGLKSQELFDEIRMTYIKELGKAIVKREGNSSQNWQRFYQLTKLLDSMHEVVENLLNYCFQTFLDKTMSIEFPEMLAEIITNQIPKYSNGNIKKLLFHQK
# [24] = biological target: Thyroid hormone receptor beta (Homo sapiens) (UniProt P10828); test: TRbeta Indigo Bioscience nuclear receptor screen; details: Compound concentration 0.3 uM
# [25] = biological target: Peroxisome proliferator-activated receptor alpha (Homo sapiens) (UniProt Q07869); test: PPARalpha Indigo Bioscience nuclear receptor screen; details: Compound concentration 0.3 uM
# [26] = biological target: 5-hydroxytryptamine receptor 7 (Homo sapiens) (UniProt P34969); details: Compound concentration 10.0 uM
# [27] = biological target: D(1A) dopamine receptor (Homo sapiens) (UniProt P21728); details: Compound concentration 10.0 uM
# [28] = biological target: D(2) dopamine receptor (Homo sapiens) (UniProt P14416); details: Compound concentration 10.0 uM
# [29] = biological target: D(1B) dopamine receptor (Homo sapiens) (UniProt P21918); details: Compound concentration 10.0 uM
# Chain of D(1B) dopamine receptor (Homo sapiens) (P21918 whole entry): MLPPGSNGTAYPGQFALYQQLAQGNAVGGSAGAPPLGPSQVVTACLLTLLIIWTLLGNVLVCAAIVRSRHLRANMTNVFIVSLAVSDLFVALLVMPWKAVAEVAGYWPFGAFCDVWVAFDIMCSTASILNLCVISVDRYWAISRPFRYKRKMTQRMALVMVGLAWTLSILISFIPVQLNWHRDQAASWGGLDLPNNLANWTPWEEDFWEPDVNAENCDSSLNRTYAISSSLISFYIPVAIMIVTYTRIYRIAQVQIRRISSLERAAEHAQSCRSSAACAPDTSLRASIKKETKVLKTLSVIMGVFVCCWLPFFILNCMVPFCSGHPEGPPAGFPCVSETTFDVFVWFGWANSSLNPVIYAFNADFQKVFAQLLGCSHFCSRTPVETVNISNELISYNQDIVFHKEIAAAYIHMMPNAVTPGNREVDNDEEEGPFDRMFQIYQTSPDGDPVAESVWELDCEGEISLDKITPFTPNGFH
# [30] = biological target: Sodium-dependent serotonin transporter (Homo sapiens) (UniProt P31645); details: Compound concentration 10.0 uM
# [31] = biological target: Sodium-dependent noradrenaline transporter (Homo sapiens) (UniProt P23975); details: Compound concentration 10.0 uM
# [32] = biological target: Alpha-2A adrenergic receptor (Homo sapiens) (UniProt P08913); details: Compound concentration 10.0 uM
# [33] = biological target: Alpha-2B adrenergic receptor (Homo sapiens) (UniProt P18089); details: Compound concentration 10.0 uM
# [34] = biological target: Muscarinic acetylcholine receptor M2 (Homo sapiens) (UniProt P08172); details: Compound concentration 10.0 uM
# Chain of Muscarinic acetylcholine receptor M2 (Homo sapiens) (P08172 whole entry): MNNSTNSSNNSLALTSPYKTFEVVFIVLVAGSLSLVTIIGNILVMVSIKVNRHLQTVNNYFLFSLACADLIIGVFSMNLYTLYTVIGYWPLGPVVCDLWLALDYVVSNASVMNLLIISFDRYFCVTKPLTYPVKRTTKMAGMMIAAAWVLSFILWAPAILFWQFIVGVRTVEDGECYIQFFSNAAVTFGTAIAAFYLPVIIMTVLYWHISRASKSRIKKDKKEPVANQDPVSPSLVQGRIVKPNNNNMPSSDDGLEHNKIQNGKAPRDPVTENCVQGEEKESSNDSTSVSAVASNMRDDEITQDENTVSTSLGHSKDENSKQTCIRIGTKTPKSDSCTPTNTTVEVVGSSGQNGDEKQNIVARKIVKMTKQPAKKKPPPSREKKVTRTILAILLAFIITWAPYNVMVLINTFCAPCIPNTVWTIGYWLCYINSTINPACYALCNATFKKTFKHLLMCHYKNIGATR
# [35] = biological target: GABA-A receptor; anion channel (Rattus norvegicus) (UniProt O09028+P15431+P18506+P18508+P19969+P20236+P23574+P23576+P28471+P28473+P30191+P62813+P63079+P63138+Q91ZM7+Q9ES14); details: Compound concentration 10.0 uM
# [36] = species on record: Rattus norvegicus; details: Compound concentration 10.0 uM
smiles,measurement,setting,value
COc1nc2ccc([C@@](O)(c3ccccc3)C3CCN(C(C)=O)CC3)cc2c(Cl)c1Cc1ccc(-n2cccn2)cc1 [JNJ-54119936],Ki,[1],9.22 µM
same,inhibition,[2],-5%
same,inhibition,[3],7%
same,inhibition,[4],2%
same,inhibition,[5],4%
same,inhibition,[6],4%
same,inhibition,[7],-4%
same,inhibition,[8],3%
same,inhibition,[9],2%
same,inhibition,[10],13%
same,inhibition,[11],14%
same,inhibition,[12],1%
same,inhibition,[13],5%
same,inhibition,[14]; Compound concentration 1.0 uM,18%
same,inhibition,[14]; Compound concentration 10.0 uM,21%
same,inhibition,[15]; Compound concentration 1.0 uM,45%
same,inhibition,[15]; Compound concentration 10.0 uM,25%
same,inhibition,[16],14%
same,inhibition,[17],20%
same,inhibition,[18]; Compound concentration 1.0 uM,18%
same,inhibition,[18]; Compound concentration 10.0 uM,22%
same,inhibition,[19],11%
same,inhibition,[20],18%
same,inhibition,[21]; Compound concentration 1.0 uM,34%
same,inhibition,[21]; Compound concentration 10.0 uM,16%
same,inhibition,[22],13%
same,inhibition,[23]; Compound concentration 0.3 uM,4.11%
same,inhibition,[23]; Compound concentration 1.0 uM,2.23%
same,inhibition,[23]; Compound concentration 3.0 uM,12.6%
same,inhibition,[24],1.13%
same,inhibition,[25],1.34%
same,inhibition,[26],-2.29%
same,inhibition,[27],19.9%
same,inhibition,[28],12.5%
same,inhibition,[29],33.9%
same,inhibition,[30],5.62%
same,inhibition,[31],21.7%
same,inhibition,[32],20.8%
same,inhibition,[33],54.6%
same,inhibition,[34],1.16%
same,inhibition,[35],10.3%
same,inhibition,[36],35.6%
